Results taken from ChEMBL document CHEMBL1135773, “Purine and pyrimidine (P2) receptors as drug targets” (J Med Chem, 2002).

Tests used:
P2Y purinoceptor 11 = molecular target: T1, P2Y purinoceptor 11 (Homo sapiens, UniProt Q96G91); assay: Agonist activity against phospholipase C coupled human P2Y purinoceptor 11 (P2Y11); assay type: functional
T1 sequence (Q96G91 whole entry): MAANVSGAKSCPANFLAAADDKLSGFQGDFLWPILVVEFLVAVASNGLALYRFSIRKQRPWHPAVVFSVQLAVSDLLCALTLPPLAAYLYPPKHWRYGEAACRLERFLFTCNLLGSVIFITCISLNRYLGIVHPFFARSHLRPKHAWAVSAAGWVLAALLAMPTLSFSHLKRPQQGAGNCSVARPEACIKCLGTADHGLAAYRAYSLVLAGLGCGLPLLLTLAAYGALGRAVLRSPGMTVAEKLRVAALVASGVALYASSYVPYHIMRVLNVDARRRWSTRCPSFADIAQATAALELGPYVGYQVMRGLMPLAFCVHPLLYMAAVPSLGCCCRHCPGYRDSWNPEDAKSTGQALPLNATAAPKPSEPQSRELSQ

P2X purinoceptor 1 [1] = molecular target: T2, P2X purinoceptor 1 (Rattus norvegicus, UniProt P47824); assay: The compound was evaluated for antagonist activity against recombinant rat P2X purinoceptor 1 (P2X1); assay type: functional
T2 sequence (P47824 whole entry): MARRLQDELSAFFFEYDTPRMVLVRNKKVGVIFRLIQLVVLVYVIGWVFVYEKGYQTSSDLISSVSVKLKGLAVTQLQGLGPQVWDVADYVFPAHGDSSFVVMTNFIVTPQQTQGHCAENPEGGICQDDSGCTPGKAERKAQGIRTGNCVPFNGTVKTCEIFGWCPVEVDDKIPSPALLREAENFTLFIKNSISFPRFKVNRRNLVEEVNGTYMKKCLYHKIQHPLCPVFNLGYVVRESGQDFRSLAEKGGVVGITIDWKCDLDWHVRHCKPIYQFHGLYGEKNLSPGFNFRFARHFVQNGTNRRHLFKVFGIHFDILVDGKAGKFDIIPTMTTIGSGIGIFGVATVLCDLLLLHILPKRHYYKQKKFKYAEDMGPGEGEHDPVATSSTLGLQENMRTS

P2Y purinoceptor 1 = P2Y purinoceptor 1 (Meleagris gallopavo, UniProt P49652); assay: Evaluated for agonist activity against phospholipase C coupled P2Y purinoceptor 1 (P2Y1) of turkey erythrocytes; assay type: functional
P2Y purinoceptor 1, sequence (P49652 whole entry): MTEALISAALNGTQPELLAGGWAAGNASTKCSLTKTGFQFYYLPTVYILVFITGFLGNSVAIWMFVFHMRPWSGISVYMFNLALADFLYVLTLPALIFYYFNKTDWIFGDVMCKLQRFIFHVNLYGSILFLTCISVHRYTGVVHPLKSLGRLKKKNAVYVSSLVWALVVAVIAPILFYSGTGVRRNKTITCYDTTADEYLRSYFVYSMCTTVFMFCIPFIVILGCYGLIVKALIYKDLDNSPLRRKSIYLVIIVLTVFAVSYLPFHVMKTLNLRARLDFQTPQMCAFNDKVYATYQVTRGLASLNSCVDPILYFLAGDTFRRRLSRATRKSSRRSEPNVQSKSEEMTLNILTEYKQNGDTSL

P2X purinoceptor 4 [2] = molecular target: T3, P2X purinoceptor 4 (Rattus norvegicus, UniProt P51577); assay: Antagonist activity against recombinant rat P2X purinoceptor 4 (P2X4) at 3 uM, expressed in Xenopus oocytes; assay type: functional, cell-based, Oocyte
T3 sequence (P51577 whole entry): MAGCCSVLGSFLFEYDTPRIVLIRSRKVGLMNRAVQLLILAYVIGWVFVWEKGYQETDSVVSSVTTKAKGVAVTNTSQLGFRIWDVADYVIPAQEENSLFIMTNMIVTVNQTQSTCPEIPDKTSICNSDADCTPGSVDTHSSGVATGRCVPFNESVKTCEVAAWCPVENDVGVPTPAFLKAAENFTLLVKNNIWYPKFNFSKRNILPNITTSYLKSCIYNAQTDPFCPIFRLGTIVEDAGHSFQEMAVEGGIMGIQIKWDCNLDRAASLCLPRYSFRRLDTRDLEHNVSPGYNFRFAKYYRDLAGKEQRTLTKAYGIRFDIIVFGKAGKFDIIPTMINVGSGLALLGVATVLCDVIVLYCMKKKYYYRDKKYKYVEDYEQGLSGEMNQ

P2X purinoceptor 1 [3] = molecular target: T2, P2X purinoceptor 1; assay: The compound was evaluated for antagonist activity against recombinant rat P2X purinoceptor 1 (P2X1) at 1 uM, expressed in Xenopus oocytes; assay type: functional, cell-based, Oocyte
P2Y purinoceptor 12 = P2Y purinoceptor 12 (Rattus norvegicus, UniProt Q9EPX4); assay: Antagonist activity against phospholipase C coupled rat P2Y purinoceptor 12 (P2Y12); assay type: functional
P2Y purinoceptor 12, sequence (Q9EPX4 whole entry): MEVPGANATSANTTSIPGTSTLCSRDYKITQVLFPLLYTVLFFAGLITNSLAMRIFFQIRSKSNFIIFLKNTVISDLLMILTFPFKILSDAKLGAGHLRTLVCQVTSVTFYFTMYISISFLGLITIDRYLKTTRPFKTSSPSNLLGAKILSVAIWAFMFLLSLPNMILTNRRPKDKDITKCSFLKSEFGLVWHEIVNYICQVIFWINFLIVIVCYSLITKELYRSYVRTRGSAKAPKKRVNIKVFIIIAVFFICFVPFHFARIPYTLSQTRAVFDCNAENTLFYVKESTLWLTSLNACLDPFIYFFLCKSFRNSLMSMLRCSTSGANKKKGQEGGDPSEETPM

P2X purinoceptor 1 [4] = molecular target: T4, P2X purinoceptor 1 (Homo sapiens, UniProt P51575); assay: Antagonist activity against recombinant human P2X purinoceptor 1 (P2X1 ); assay type: functional
T4 sequence (P51575 whole entry): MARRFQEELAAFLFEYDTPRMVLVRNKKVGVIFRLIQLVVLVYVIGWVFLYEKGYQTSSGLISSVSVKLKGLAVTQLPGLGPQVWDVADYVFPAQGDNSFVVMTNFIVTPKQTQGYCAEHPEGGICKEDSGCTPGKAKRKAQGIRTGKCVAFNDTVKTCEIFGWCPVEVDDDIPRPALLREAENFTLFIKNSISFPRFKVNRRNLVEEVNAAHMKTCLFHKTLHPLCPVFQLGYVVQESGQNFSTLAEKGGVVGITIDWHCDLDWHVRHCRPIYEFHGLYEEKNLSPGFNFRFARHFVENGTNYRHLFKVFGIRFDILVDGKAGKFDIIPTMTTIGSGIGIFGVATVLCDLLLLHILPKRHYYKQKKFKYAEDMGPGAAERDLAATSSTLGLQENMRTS

P2X purinoceptor 6 = P2X purinoceptor 6 (Rattus norvegicus, UniProt P51579); assay: Antagonist activity against recombinant rat P2X purinoceptor 6 (P2X6 ); assay type: functional
P2X purinoceptor 6, sequence (P51579 whole entry): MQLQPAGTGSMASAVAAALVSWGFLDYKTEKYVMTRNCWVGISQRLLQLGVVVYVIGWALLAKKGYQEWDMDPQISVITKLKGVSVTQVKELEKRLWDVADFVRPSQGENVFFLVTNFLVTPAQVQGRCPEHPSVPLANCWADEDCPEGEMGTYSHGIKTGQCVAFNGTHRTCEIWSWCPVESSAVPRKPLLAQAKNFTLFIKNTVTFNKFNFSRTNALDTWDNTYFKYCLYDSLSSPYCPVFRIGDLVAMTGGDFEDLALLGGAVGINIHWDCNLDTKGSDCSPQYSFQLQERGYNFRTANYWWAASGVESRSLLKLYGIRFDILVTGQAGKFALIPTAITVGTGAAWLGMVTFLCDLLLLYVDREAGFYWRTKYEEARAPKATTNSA

P2X purinoceptor 4 [5] = molecular target: T3, P2X purinoceptor 4; assay: Antagonist activity against recombinant rat P2X purinoceptor 4 (P2X4) at 30 uM, expressed in Xenopus oocytes; assay type: functional, cell-based, Oocyte
P2X purinoceptor 2 = molecular target: T5, P2X purinoceptor 2 (Rattus norvegicus, UniProt P49653); assay: Antagonist activity against recombinant rat receptor P2X purinoceptor 2 (P2X2) at 10 uM, expressed in Xenopus oocytes; assay type: functional, cell-based, Oocyte
T5 sequence (P49653 whole entry): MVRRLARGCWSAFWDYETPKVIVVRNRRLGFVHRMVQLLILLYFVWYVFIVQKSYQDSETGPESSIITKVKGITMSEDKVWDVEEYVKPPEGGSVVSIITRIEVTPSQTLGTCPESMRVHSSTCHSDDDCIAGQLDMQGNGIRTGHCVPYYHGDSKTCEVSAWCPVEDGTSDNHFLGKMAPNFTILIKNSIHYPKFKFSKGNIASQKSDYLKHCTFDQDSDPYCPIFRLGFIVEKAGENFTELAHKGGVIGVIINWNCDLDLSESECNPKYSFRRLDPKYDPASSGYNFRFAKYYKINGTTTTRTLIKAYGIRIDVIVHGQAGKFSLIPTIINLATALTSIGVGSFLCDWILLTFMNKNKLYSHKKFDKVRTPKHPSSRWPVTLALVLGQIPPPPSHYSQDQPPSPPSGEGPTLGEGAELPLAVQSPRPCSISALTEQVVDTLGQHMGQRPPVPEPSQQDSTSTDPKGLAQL

P2X purinoceptor 5 = molecular target: T6, P2X purinoceptor 5 (Rattus norvegicus, UniProt P51578); assay: Antagonist activity against recombinant rat P2X purinoceptor 5 (P2X5); assay type: functional
T6 sequence (P51578 whole entry): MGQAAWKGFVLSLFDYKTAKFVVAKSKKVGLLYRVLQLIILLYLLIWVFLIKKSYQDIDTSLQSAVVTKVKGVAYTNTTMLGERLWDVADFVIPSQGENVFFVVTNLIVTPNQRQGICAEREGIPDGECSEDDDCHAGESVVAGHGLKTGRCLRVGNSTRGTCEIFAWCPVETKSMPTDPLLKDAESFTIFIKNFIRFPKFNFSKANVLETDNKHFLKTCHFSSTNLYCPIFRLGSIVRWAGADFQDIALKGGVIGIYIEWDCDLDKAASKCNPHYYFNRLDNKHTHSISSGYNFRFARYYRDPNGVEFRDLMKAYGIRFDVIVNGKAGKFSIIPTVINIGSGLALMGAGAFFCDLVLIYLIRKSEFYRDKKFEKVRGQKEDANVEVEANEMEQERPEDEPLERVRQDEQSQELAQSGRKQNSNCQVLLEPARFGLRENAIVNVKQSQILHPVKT

P2X purinoceptor 3 = molecular target: T7, P2X purinoceptor 3 (Homo sapiens, UniProt P56373); assay: Antagonist activity against recombinant human P2X purinoceptor 3 (P2X3 ); assay type: functional
T7 sequence (P56373 whole entry): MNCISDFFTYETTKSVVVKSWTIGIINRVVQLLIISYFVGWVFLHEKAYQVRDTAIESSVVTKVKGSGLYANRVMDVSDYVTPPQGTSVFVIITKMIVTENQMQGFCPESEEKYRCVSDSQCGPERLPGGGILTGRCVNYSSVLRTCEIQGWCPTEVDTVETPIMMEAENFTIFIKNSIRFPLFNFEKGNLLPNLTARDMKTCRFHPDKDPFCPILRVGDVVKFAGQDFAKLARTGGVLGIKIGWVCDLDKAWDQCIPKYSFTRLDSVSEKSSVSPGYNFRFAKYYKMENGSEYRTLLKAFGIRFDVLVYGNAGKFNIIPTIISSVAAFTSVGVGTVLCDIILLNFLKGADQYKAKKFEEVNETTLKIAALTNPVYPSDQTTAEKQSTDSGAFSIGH

P2Y purinoceptor 2 = P2Y purinoceptor 2 (Homo sapiens, UniProt P41231); assay: Evaluated for agonist activity against phospholipase C coupled recombinant human P2Y purinoceptor 2 (P2Y2); assay type: functional
P2Y purinoceptor 2, sequence (P41231 whole entry): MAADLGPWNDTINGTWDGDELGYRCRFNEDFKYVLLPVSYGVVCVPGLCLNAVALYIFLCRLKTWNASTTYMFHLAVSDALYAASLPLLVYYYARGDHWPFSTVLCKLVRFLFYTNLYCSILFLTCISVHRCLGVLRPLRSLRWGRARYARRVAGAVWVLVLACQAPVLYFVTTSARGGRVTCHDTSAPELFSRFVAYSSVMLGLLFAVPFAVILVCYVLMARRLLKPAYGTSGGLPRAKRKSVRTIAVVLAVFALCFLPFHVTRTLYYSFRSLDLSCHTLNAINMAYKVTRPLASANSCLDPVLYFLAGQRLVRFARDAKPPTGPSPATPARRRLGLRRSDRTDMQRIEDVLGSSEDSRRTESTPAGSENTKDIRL

In the case of Nc1ncnc2c1ncn2[C@H]1C[C@H](O)[C@@H](COP(=O)(O)OP(=O)(O)OP(=O)(O)O)O1, the EC50 (P2Y purinoceptor 11) is reported as 9 µM.

Compound O=c1[nH]cnc2c1ncn2[C@@H]1O[C@H](COP(=O)(O)OP(=O)(O)OP(=O)(O)OP(=O)(O)OP(=O)(O)OC[C@H]2O[C@@H](n3cnc4c(=O)[nH]cnc43)[C@H](O)[C@@H]2O)[C@@H](O)[C@H]1O has an EC50 (P2X purinoceptor 1 [1]) of 0.0015 µM.

Nc1ncnc2c1ncn2[C@H]1CC(OP(=O)(O)O)C2(COP(=O)(O)O)CC12 (stereo partly drawn) was tested, and the EC50 (P2Y purinoceptor 1) was 0.155 µM.

Nc1ncnc2c1ncn2[C@@H]1CO[C@H](COP(=O)(O)O)[C@@H](OP(=O)(O)O)C1 showed an EC50 (P2Y purinoceptor 1) of 0.003 µM.

In the case of CCCCCCSc1nc(N)c2ncn([C@@H]3O[C@H](COP(=O)(O)O)[C@@H](O)[C@H]3O)c2n1, the EC50 (P2X purinoceptor 4 [2]) is reported as 20 µM, the EC50 (P2Y purinoceptor 1) is reported as 0.0048 µM and the EC50 (P2X purinoceptor 1 [3]) is reported as 0.84 µM.

Compound Nc1ncnc2c1ncn2[C@@H]1O[C@H](COP(=O)(O)OP(=O)(O)CP(=O)(O)O)[C@@H](O)[C@H]1O [PHOSPHOMETHYLPHOSPHONIC ACID ADENYLATE ESTER] has an EC50 (P2Y purinoceptor 12) of over 100 µM, an EC50 (P2Y purinoceptor 1) of over 100 µM and an EC50 (P2X purinoceptor 1 [4]) of 2 µM.

Nc1ncnc2c1ncn2[C@@H]1O[C@H](CO[P@](=O)(O)O[P@](=O)(O)O[P@@](=O)(O)S)[C@@H](O)[C@H]1O was tested, and the EC50 (P2X purinoceptor 6) was 1.3 µM, the EC50 (P2Y purinoceptor 12) was 1.3 µM and the EC50 (P2Y purinoceptor 11) was 3 µM. It also gave an EC50 (P2X purinoceptor 4 [5]) of 2.3 µM, an EC50 (P2X purinoceptor 2) of 1.5 µM and an EC50 (P2Y purinoceptor 1) of 1.3 µM. The EC50 (P2X purinoceptor 5) was 0.6 µM, the EC50 (P2X purinoceptor 3) was 0.69 µM and the EC50 (P2X purinoceptor 1 [4]) was 2.3 µM. It also gave an EC50 (P2Y purinoceptor 2) of 1.72 µM.

Compound Nc1ccc(CCSc2nc(N)c3ncn([C@@H]4O[C@H](COP(=O)(O)OP(=O)(O)OP(=O)(O)O)[C@@H](O)[C@H]4O)c3n2)cc1 has an EC50 (P2X purinoceptor 4 [2]) of 15 µM, an EC50 (P2Y purinoceptor 1) of 0.0015 µM and an EC50 (P2X purinoceptor 1 [3]) of 0.098 µM.
